Data set [1] can be described thus: Anti-HIV activity by using phytohemagglutininin-stimulated peripheral blood mononuclear cell(PHA/PBM) test system. The format is functional. The note with it: Homo sapiens.
Data set [2] in a line: Partition coefficient (logP). The format is physicochemical. The note with it: octanol/water.

Each structure is given as a SMILES string. pIC50: −log10 of the molar value. A value given as a limit tells only on which side of the number the result lay.

As a reminder, the pIC50 is the IC50 on a negative log10 scale, so that one unit is a factor of ten. Low values mean a high IC50, high ones a low IC50. In data set [1], `OCC1CC(F)C(n2cnc3c(F)ncnc32)O1` (centres undefined) showed a pIC50 of less than 5.30.
Regarding `OCC1CC(F)C(n2cnc3c(Cl)ncnc32)O1` (centres undefined), the pIC50 in data set [1] is 5.23.
As a reminder, the logP is a log measure of how a compound divides between an organic and an aqueous phase. A high value points to a more lipophilic compound. Turning to `OCC1CC(F)C(n2cnc3c(NO)ncnc32)O1` (centres undefined), in data set [1], the pIC50 was 5.17. In addition, the logP in data set [2] was -0.983.
On the same counts, the results for `OCC1CC(F)C(n2cnc3c(NOCc4ccccc4)ncnc32)O1` (centres undefined) are less than 4.10 and 1.25.
On the same counts, the results for `CONc1ncnc2c1ncn2C1OC(CO)CC1F` (centres undefined) are less than 4.10 and -0.414.
`CNc1ncnc2c1ncn2C1OC(CO)CC1F` (centres undefined) had a pIC50 in data set [1] of 4.88.
As to `OCC1CC(F)C(n2cnc3c(O)ncnc32)O1` (centres undefined), the pIC50 in data set [1] is 5.20.
The compound `CN(C)c1ncnc2c1ncn2C1OC(CO)CC1F` (centres undefined) had a pIC50 in data set [1] of 4.74. Moreover, the logP in data set [2] was 0.797.
The like results for `O=[N+]([O-])c1ncnc2c1ncn2C1OC(CO)CC1F` (centres undefined) were, in that order, 5.02 and -0.395.
`CCNc1ncnc2c1ncn2C1OC(CO)CC1F` (centres undefined) had a pIC50 in data set [1] of 4.95. The logP in data set [2] is 0.779.
In turn, `NNc1ncnc2c1ncn2C1OC(CO)CC1F` (centres undefined) gave a pIC50 in data set [1] of 4.44.
Same read-out and setting: the same measure for `O=c1[nH]cnc2c1ncn2[C@H]1CC[C@@H](CO)O1` [DIDANOSINE]: 6.52; for `Nc1ncnc2c1ncn2[C@@H]1O[C@H](CO)C[C@@H]1F` [LODENOSINE]: 5.48.
